The target of this assay is human APJ receptor (Homo sapiens (Human), UniProt P35414). Put plainly: biochemical. The settings on record: [35S]GTPγS binding, CHO membranes expressing human APJ receptor; read-out: Activity hAPJ SPA EC50 IP. The format is biochemical. Put shortly: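 GTPγS binding on membranes from CHO cells stably expressing FLAG-tagged human APJ, with optimized GDP, MgCl2 and NaCl; incubated 90 min at RT before imaging read-out.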
Chain of human APJ receptor (P35414 whole entry): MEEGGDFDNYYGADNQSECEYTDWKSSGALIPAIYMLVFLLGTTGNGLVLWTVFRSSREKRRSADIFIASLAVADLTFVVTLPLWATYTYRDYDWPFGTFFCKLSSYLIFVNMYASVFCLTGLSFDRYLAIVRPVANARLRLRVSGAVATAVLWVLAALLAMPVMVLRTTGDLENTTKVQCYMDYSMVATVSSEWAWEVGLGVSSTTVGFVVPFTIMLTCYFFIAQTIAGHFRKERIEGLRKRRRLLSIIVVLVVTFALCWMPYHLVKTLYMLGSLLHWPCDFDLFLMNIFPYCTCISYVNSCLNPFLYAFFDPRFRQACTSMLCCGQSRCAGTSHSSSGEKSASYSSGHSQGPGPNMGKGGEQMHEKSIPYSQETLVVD

Regarding `CO[C@H]1CCC[C@@H](OC)C1n1c(NS(=O)(=O)[C@@H](C)[C@H](C)c2ncc(Cl)cn2)nnc1-c1cnn2ccccc12` (stereo partly drawn) [Example 442.0, (2S,3R)-3-(5-chloropyrimidin-2-yl)-N-(4-((1r,2R,6S)-2,6-dimethoxycyclohexyl)-5-(pyrazolo[1,5-a]pyridin-3-yl)-4H-1,2,4-triazol-3-yl)butane-2-sulfonamide], the concentration giving a half-maximal response (EC50) (in general, the concentration at which the effect is half-maximal) was 190 nM.

For `COc1cccc(OC)c1-n1c(NS(=O)(=O)[C@H](C)[C@@H](C)c2ncc(Cl)cn2)nnc1-c1ccn(C)n1` [Example 443.0, (2R,3S)-3-(5-chloropyrimidin-2-yl)-N-(4-(2,6-dimethoxyphenyl)-5-(1-methyl-1H-pyrazol-3-yl)-4H-1,2,4-triazol-3-yl)butane-2-sulfonamide], the EC50 worked out at 6.4 nM. Regarding `COc1cccc(OC)c1-n1c(NS(=O)(=O)[C@@H](C)[C@H](OC)c2ncc(C)cn2)nnc1-c1cnn2c1CCC2` [Example 444.0, (1R,2S)-N-(5-(5,6-dihydro-4H-pyrrolo[1,2-b]pyrazol-3-yl)-4-(2,6-dimethoxyphenyl)-4H-1,2,4-triazol-3-yl)-1-methoxy-1-(5-methylpyrimidin-2-yl)propane-2-sulfonamide], the EC50 came out at 1.2 nM. Then `COc1cccc(OC)c1-n1c(NS(=O)(=O)[C@@H](C)[C@H](C)c2ncc(Cl)cn2)nnc1-c1cnn2c1CCC2` [Example 445.0, (2S,3R)-3-(5-chloropyrimidin-2-yl)-N-(5-(5,6-dihydro-4H-pyrrolo[1,2-b]pyrazol-3-yl)-4-(2,6-dimethoxyphenyl)-4H-1,2,4-triazol-3-yl)butane-2-sulfonamide], with 0.089 nM; and `COc1cccc(OC)c1-n1c(NS(=O)(=O)[C@@H](C)[C@@H](OC(C)C)c2ncc(C)cn2)nnc1-c1cnn2c1CCC2` [Example 446.0, (1S,2S)-N-(5-(5,6-dihydro-4H-pyrrolo[1,2-b]pyrazol-3-yl)-4-(2,6-dimethoxyphenyl)-4H-1,2,4-triazol-3-yl)-1-isopropoxy-1-(5-methylpyrimidin-2-yl)propane-2-sulfonamide], with 0.74 nM. Regarding `COc1cccc(OC)c1-n1c(NS(=O)(=O)[C@@H](C)[C@@H](OC(C)C)c2ncc(Cl)cn2)nnc1-c1cnn2c1CCC2` [Example 447.0, (1S,2S)-1-(5-chloropyrimidin-2-yl)-N-(5-(5,6-dihydro-4H-pyrrolo[1,2-b]pyrazol-3-yl)-4-(2,6-dimethoxyphenyl)-4H-1,2,4-triazol-3-yl)-1-isopropoxypropane-2-sulfonamide], the EC50 stood at 0.12 nM.

Consider `COCC(COC)n1c(NS(=O)(=O)[C@@H](C)[C@H](C)c2ncc(Cl)cn2)nnc1-c1nn(C)c2ccc(C)cc12` [Example 448.0, (2S,3R)-3-(5-chloropyrimidin-2-yl)-N-(4-(1,3-dimethoxypropan-2-yl)-5-(1,5-dimethyl-1H-indazol-3-yl)-4H-1,2,4-triazol-3-yl)butane-2-sulfonamide], for which the concentration giving a half-maximal response (EC50) was 10 nM. On to `COCC(COC)n1c(NS(=O)(=O)[C@@H](C)[C@H](C)c2ncc(Cl)cn2)nnc1-c1nn(C)c2ccccc12` [Example 449.0, (2S,3R)-3-(5-chloropyrimidin-2-yl)-N-(4-(1,3-dimethoxypropan-2-yl)-5-(1-methyl-1H-indazol-3-yl)-4H-1,2,4-triazol-3-yl)butane-2-sulfonamide], for which the EC50 is 13 nM. On to `COc1ncnc(OC)c1-n1c(NS(=O)(=O)[C@@H](C)[C@H](OC)c2ncc(Cl)cn2)nnc1-c1ccn(C)n1` [Example 450.0, (1R,2S)-1-(5-chloro-2-pyrimidinyl)-N-(4-(4,6-dimethoxy-5-pyrimidinyl)-5-(1-methyl-1H-pyrazol-3-yl)-4H-1,2,4-triazol-3-yl)-1-methoxy-2-propanesulfonamide], for which the half-maximal effective concentration (EC50) worked out at 0.81 nM. With `COCC(COC)n1c(NS(=O)(=O)[C@@H](C)[C@H](C)c2cnc(OC)cn2)nnc1-c1ccn(C)n1` [Example 453.0, (2S,3R)-N-(4-(1,3-dimethoxy-2-propanyl)-5-(1-methyl-1H-pyrazol-3-yl)-4H-1,2,4-triazol-3-yl)-3-(5-methoxy-2-pyrazinyl)-2-butanesulfonamide], the EC50 was 73 nM.

As for `COCC1(n2c(NS(=O)(=O)[C@@H](C)[C@H](C)c3cnc(OC)cn3)nnc2-c2ccn(C)n2)CC1` [Example 454.0, (2S,3R)-N-(4-(1-(methoxymethyl)cyclopropyl)-5-(1-methyl-1H-pyrazol-3-yl)-4H-1,2,4-triazol-3-yl)-3-(5-methoxy-2-pyrazinyl)-2-butanesulfonamide], the EC50 is 56 nM. For `COc1ccc([C@@H](OC)[C@H](C)S(=O)(=O)Nc2nnc(-c3ccn(C)n3)n2-c2c(OC)ncnc2OC)nc1` [Example 455.0, (1R,2S)-N-(4-(4,6-dimethoxy-5-pyrimidinyl)-5-(1-methyl-1H-pyrazol-3-yl)-4H-1,2,4-triazol-3-yl)-1-methoxy-1-(5-methoxy-2-pyridinyl)-2-propanesulfonamide], the EC50 was determined as 5.7 nM.

For the compound `COc1ncnc(OC)c1-n1c(NS(=O)(=O)[C@@H](C)[C@@H](OC(C)C)c2ncc(Cl)cn2)nnc1-c1ccn(C)n1` [Example 456.0, (1S,2S)-1-(5-chloro-2-pyrimidinyl)-N-(4-(4,6-dimethoxy-5-pyrimidinyl)-5-(1-methyl-1H-pyrazol-3-yl)-4H-1,2,4-triazol-3-yl)-1-(1-methylethoxy)-2-propanesulfonamide], the half-maximal effective concentration (EC50) worked out at 0.6 nM. Turning to `COc1cnc([C@H](C)[C@@H](C)S(=O)(=O)Nc2nnc(-c3ccn(C)n3)n2-c2c(OC)cccc2OC)nc1` [Example 457.0, (2R,3S)-N-(4-(2,6-dimethoxyphenyl)-5-(1-methyl-1H-pyrazol-3-yl)-4H-1,2,4-triazol-3-yl)-3-(5-methoxy-2-pyrimidinyl)-2-butanesulfonamide], the EC50 is 25 nM. Then `COc1ccc([C@@H](C)[C@H](C)S(=O)(=O)Nc2nnc(-c3ccn(C)n3)n2-c2c(OC)ncnc2OC)nc1` [Example 458.0, (2S,3R)-N-(4-(4,6-dimethoxy-5-pyrimidinyl)-5-(1-methyl-1H-pyrazol-3-yl)-4H-1,2,4-triazol-3-yl)-3-(5-methoxy-2-pyridinyl)-2-butanesulfonamide], with 2.8 nM. Regarding `COc1ccc([C@@H](C)[C@H](C)S(=O)(=O)Nc2nnc(-c3ccn(C)n3)n2-c2c(OC)cccc2OC)nc1` [Example 459.0, (2S,3R)-N-(4-(2,6-dimethoxyphenyl)-5-(1-methyl-1H-pyrazol-3-yl)-4H-1,2,4-triazol-3-yl)-3-(5-methoxy-2-pyridinyl)-2-butanesulfonamide], the half-maximal effective concentration (EC50) was determined as 0.33 nM. Regarding `COc1cnc([C@@H](OC)[C@H](C)S(=O)(=O)Nc2nnc(-c3ccn(C)n3)n2-c2c(OC)ncnc2OC)cn1` [Example 460.0, (1R,2S)-N-(4-(4,6-dimethoxy-5-pyrimidinyl)-5-(1-methyl-1H-pyrazol-3-yl)-4H-1,2,4-triazol-3-yl)-1-methoxy-1-(5-methoxy-2-pyrazinyl)-2-propanesulfonamide], the EC50 was determined as 2.6 nM. For the compound `COc1ncnc(OC)c1-n1c(NS(=O)(=O)[C@@H](C)[C@@H](OC(C)C)c2cnc(C)cn2)nnc1-c1ccn(C)n1` [Example 461.0, (1S,2S)-N-(4-(4,6-dimethoxy-5-pyrimidinyl)-5-(1-methyl-1H-pyrazol-3-yl)-4H-1,2,4-triazol-3-yl)-1-(5-methyl-2-pyrazinyl)-1-(2-propanyloxy)-2-propanesulfonamide], the concentration giving a half-maximal response (EC50) amounted to 9 nM. For `COCC1(n2c(NS(=O)(=O)[C@@H](C)[C@@H](OC(C)C)c3ncc(C)cn3)nnc2-c2ccn(C)n2)CC1` [Example 462.0, (1S,2S)-N-(4-(1-(methoxymethyl)cyclopropyl)-5-(1-methyl-1H-pyrazol-3-yl)-4H-1,2,4-triazol-3-yl)-1-(5-methyl-2-pyrimidinyl)-1-(2-propanyloxy)-2-propanesulfonamide], the EC50 stood at 4.1 nM.

For `CO[C@H](c1ncc(Cl)cn1)[C@H](C)S(=O)(=O)Nc1nnc(-c2cnn3c2CCC3)n1C1CC1` [Example 478.0], the EC50 amounted to 11 nM.

On to `COc1cccc(OC)c1-n1c(NS(=O)(=O)[C@@H](C)[C@H](C)c2ncc(F)cn2)nnc1-c1cnn2c1CCC2` [Example 479.0, (2S,3R)-N-(5-(5,6-dihydro-4H-pyrrolo[1,2-b]pyrazol-3-yl)-4-(2,6-dimethoxyphenyl)-4H-1,2,4-triazol-3-yl)-3-(5-fluoropyrimidin-2-yl)butane-2-sulfonamide], for which the 50% effective concentration (EC50) was 0.56 nM. As to `COc1ncnc(OC)c1-n1c(NS(=O)(=O)[C@@H](C)[C@H](C)c2ncc(F)cn2)nnc1-c1cnn2c1CCC2` [Example 480.0, (2S,3R)-N-(5-(5,6-dihydro-4H-pyrrolo[1,2-b]pyrazol-3-yl)-4-(4,6-dimethoxypyrimidin-5-yl)-4H-1,2,4-triazol-3-yl)-3-(5-fluoropyrimidin-2-yl)butane-2-sulfonamide], the EC50 stood at 4.4 nM. Consider `COc1cccc(OC)c1-n1c(NS(=O)(=O)[C@@H](C)[C@@H](OC(C)C)c2ncc(F)cn2)nnc1-c1cnn2c1CCC2` [Example 482.0, (1S,2S)-N-(5-(5,6-dihydro-4H-pyrrolo[1,2-b]pyrazol-3-yl)-4-(2,6-dimethoxyphenyl)-4H-1,2,4-triazol-3-yl)-1-(5-fluoropyrimidin-2-yl)-1-isopropoxypropane-2-sulfonamide], for which the EC50 amounted to 0.38 nM. As for `Cc1cnc([C@@H](C)[C@H](C)S(=O)(=O)Nc2nnc(-c3cnn4c3CCC4)n2-c2c(F)cccc2F)nc1` [Example 483.0, (2S,3R)-N-(4-(2,6-difluorophenyl)-5-(5,6-dihydro-4H-pyrrolo[1,2-b]pyrazol-3-yl)-4H-1,2,4-triazol-3-yl)-3-(5-methylpyrimidin-2-yl)butane-2-sulfonamide], the EC50 came to 5.4 nM.

Take `Cc1cnc([C@H](OC(C)C)[C@H](C)S(=O)(=O)Nc2nnc(-c3cnn4c3CCC4)n2-c2c(F)cccc2F)cn1` [Example 484.0, (1S,2S)-N-(4-(2,6-difluorophenyl)-5-(5,6-dihydro-4H-pyrrolo[1,2-b]pyrazol-3-yl)-4H-1,2,4-triazol-3-yl)-1-isopropoxy-1-(5-methylpyrazin-2-yl)propane-2-sulfonamide]: the EC50 came to 9.2 nM.
